Results reported in patent US12419305B2, “Antimicrobial compositions” (Firmenich SA, priority 2018, dated 2025).
Read-outs that look alike come from different tables or passages of the source.

System: S. aureus ATCC 6538
Experiment: BCT test (bacterial contact time), 60 s, log reduction / effect fraction; CI by Compusyn
Format: cell-based, Staphylococcus aureus
Details: Staphylococcus aureus, ATCC6538, 1 min, in 25% EtOH; for log reduction at 0.05 % strength: dose 0.050 % w/v; for log reduction at 0.06 % strength: dose 0.060 % w/v; for log reduction at 0.07 % strength: dose 0.070 % w/v; for log reduction at 0.08 % strength: dose 0.080 % w/v; for log reduction at 0.3 % strength: dose 0.300 % w/v; for log reduction at 0.075 % strength: dose 0.075 % w/v; for log reduction at 1 % strength: dose 1.000 % w/v; for log reduction at 0.35 % strength: dose 0.350 % w/v; for log reduction at 0.4 % strength: dose 0.400 % w/v; for log reduction at 0.45 % strength: dose 0.45 % w/v; for log reduction at 0.5 % strength: dose 0.500 % w/v
Protocol: E. coli, S. aureus, P. aeruginosa, and S. enterica: Separate suspensions of the E. coli ATCC 10536 strain, S. aureus ATCC 6538 strain, Pseudomonas aeruginosa ATCC 15442 strain, and the Salmonella enterica ATCC 10708 strain were prepared as follows: Stock cultures (stored at −80° C.) were thawed and sub-cultured onto Tryptic Soy Agar (TSA) agar plate media, and incubated at 37° C. for 24 h to obtain single colonies. Single colonies of the primary cultures were streaked onto TSA plates and incubated at 37° for 24 h to generate secondary cultures. Single colonies of secondary cultures picked and used to inoculate into 50 mL of TSB broth. The inoculated TSB broth was incubated at 37° C. at 180 rpm for 18 h. Aliquots (0.5 ml) of the 18 h culture were inoculated into 50 ml of fresh TSB broth, and incubated at 37° C. at 180 rpm for 2-3 hours. When the OD600 nm value of the broth reached 1-2, cells were harvested by centrifugation at 5000 rpm for 10 min, and then resuspended in fresh TSB broth at a concentration of 1-5×10^8 CFU/mL. These suspensions were used as the bacterial suspensions for the BCT test.
BCT Test: Test compositions at a range of concentrations (either combinations of more than one perfume ingredient, and comparative compositions comprising the single perfume ingredients) were prepared in ethanol. Five replicates of each test composition were added into 96-well microtiter plates (120 μl per well), with row B containing control compositions containing the ethanol solution alone. 120 μl of bacterial cell suspensions at a concentration of approximately 1×10^8 bacteria per mL (as prepared above) were added to each well of the microtiter plate. The bacterial suspensions were incubated with the test solutions for 45, 60, or 120 seconds. Following the incubation of the bacterial suspensions with the test solutions, serial dilutions of the bacterial suspensions were generated (three serial 1:10 dilutions, followed by 17 serial 1:2 dilutions), in multiwell microtiter plates.
Each plate was sealed and incubated at 37° C. under agitation (180 rpm). After incubation, the turbidity of the wells (OD600 nm) was determined using a Tecan microplate reader. Turbid wells were regarded as positive growth, due to the presence of viable cells. The total number of viable cells (log CFU) for each sample was calculated. And the log reduction for each test composition at the final concentration (dose) was calculated against the control sample of the ethanol solution.
Determination of Synergy via the Combination Index (CI): The CI was calculated using Compusyn software (ComboSyn, Inc., as created by Dr. Dorothy Chou in 2005), according to the manufacturer's instructions. The concentration of each test composition (combinations of more than one perfume ingredient, and comparative compositions comprising the single perfume ingredients used to generate the combination) and their corresponding effect fraction was entered, and the corresponding CI calculated.
When the calculated CI values were less than 0.9, the combination of perfume ingredients was regarded as having synergistic effect. When the calculated CI was between 1.0 a 0.9, the combination of perfume ingredients was regarded as having an additive effect. When the calculated CI was greater than 1.0, the combination of perfume ingredients was regarded as having an antagonistic effect.

[1] = dose 0.150 % w/v, 60 s, read-out: Log reduction
[2] = dose 0.175 % w/v, 60 s, read-out: Log reduction
[3] = dose 0.200 % w/v, 60 s, read-out: Log reduction
[4] = dose 0.250 % w/v, 60 s, read-out: Log reduction

## CC(CCO)CCc1ccccc1 (stereo not drawn) [Phenylhexanol, 3-methyl-5-phenyl-1-pentanol]
60 s
  log reduction at 0.05 % strength: 1
  log reduction at 0.06 % strength: 3.3
  log reduction at 0.07 % strength: 6.7
  log reduction at 0.08 % strength: 7
Dose 0.090 % w/v, 60 s
  log reduction at 0.09 % strength: 7.5

## C=CCc1ccc(O)c(OC)c1 [Eugenol F, 2-Methoxy-4-(prop-2-en-1-yl)phenol]
Dose 0.1 % w/v, BCT 60 s
  log reduction at 0.1 % strength: 0.8
Dose 0.125 % w/v, BCT 60 s
  log reduction at 0.125 % strength: 1.6
Dose 0.15 % w/v, BCT 60 s, read-out: Log reduction
  log reduction at 0.15 % strength: 2.3
Dose 0.175 % w/v, BCT 60 s, read-out: Log reduction
  log reduction at 0.175 % strength: 5.5
Dose 0.100 % w/v, 60 s
  log reduction at 0.1 % strength: 0.7
Dose 0.125 % w/v, 60 s
  log reduction at 0.125 % strength: 1.5
Dose 0.13 % w/v, 60 s
  log reduction at 0.13 % strength: 1.6
[1]
  log reduction at 0.15 % strength: 2.2
[2]
  log reduction at 0.175 % strength: 4.6
[3]
  log reduction at 0.2 % strength: 6.9

## CC(C=O)Cc1ccc2c(c1)OCO2 (stereo not drawn) [Heliopropanal, 3-(1,3-Benzodioxol-5-yl)-2-methylpropanal]
Dose 0.15 % w/v, BCT 60 s
  log reduction at 0.15 % strength: 0.4
Dose 0.175 % w/v, BCT 60 s
  log reduction at 0.175 % strength: 0.4
Dose 0.200 % w/v, BCT 60 s
  log reduction at 0.2 % strength: 1.3
Dose 0.225 % w/v, BCT 60 s
  log reduction at 0.225 % strength: 3.5
Dose 0.25 % w/v, BCT 60 s
  log reduction at 0.25 % strength: 7.3
Dose 0.150 % w/v, 60 s
  log reduction at 0.15 % strength: 0.4
Dose 0.200 % w/v, 60 s
  log reduction at 0.2 % strength: 1.2
Dose 0.225 % w/v, 60 s
  log reduction at 0.225 % strength: 4.2
Dose 0.250 % w/v, 60 s
  log reduction at 0.25 % strength: 7
60 s
  log reduction at 0.3 % strength: 7.3

## C=C(C)[C@@H]1CC=C(CO)CC1 [Perycorolle, (S)-(−)-(4-Isopropenyl-1-cyclohexenyl)methanol]
60 s
  log reduction at 0.05 % strength: 0.2
  log reduction at 0.075 % strength: 1.6
Dose 0.100 % w/v, 60 s
  log reduction at 0.1 % strength: 5.1
Dose 0.125 % w/v, 60 s
  log reduction at 0.125 % strength: 7.3
[1]
  log reduction at 0.15 % strength: 7.3

## CCC(C)(O)CCCC(C)C (stereo not drawn) [Tetralinol, 3,7-Dimethyl-3-octanol]
Dose 0.0375 % w/v, 60 s
  log reduction at 0.0375 % strength: 1.3
60 s
  log reduction at 0.05 % strength: 5.5
  log reduction at 0.075 % strength: 7.3
Dose 0.100 % w/v, 60 s
  log reduction at 0.1 % strength: 7.5

## Cc1ccc2c(c1)OCC(=O)CO2 [Calone, 7-methyl-2H-1,5-benzodioxepin-3(4H)-one]
Dose 0.600 % w/v, 60 s, read-out: Log reduction
  log reduction at 0.6 % strength: 1.6
Dose 0.700 % w/v, 60 s, read-out: Log reduction
  log reduction at 0.7 % strength: 2.5
Dose 0.800 % w/v, 60 s
  log reduction at 0.8 % strength: 6.9
Dose 0.900 % w/v, 60 s
  log reduction at 0.9 % strength: 6.9
60 s, read-out: Log reduction
  log reduction at 1 % strength: 6.9

## CC(=O)OCc1ccccc1 [Benzyl acetate, benzyl acetate]
[4]
  log reduction at 0.25 % strength: 0.8
60 s, read-out: Log reduction
  log reduction at 0.3 % strength: 1.9
  log reduction at 0.35 % strength: 5.1
  log reduction at 0.4 % strength: 6.7
60 s
  log reduction at 0.45 % strength: 7.1

## CC(C)=CCC/C(C)=C\CO [Nerol, (Z)-3,7-dimethyl-2,6-octadien-1-ol]
Dose 0.0625 % w/v, 60 s
  log reduction at 0.0625 % strength: 1.3
60 s
  log reduction at 0.075 % strength: 3.2
Dose 0.100 % w/v, 60 s
  log reduction at 0.1 % strength: 7
Dose 0.125 % w/v, 60 s
  log reduction at 0.125 % strength: 7.3
[1]
  log reduction at 0.15 % strength: 7.5

## CC1=CCC(C(C)(C)O)CC1 (stereo not drawn) [Terpineol Ord, 2-(4-Methylcyclohex-3-en-1-yl)propan-2-ol]
Dose 0.125 % w/v, 60 s
  log reduction at 0.125 % strength: 0.8
[1]
  log reduction at 0.15 % strength: 2.8
[2]
  log reduction at 0.175 % strength: 4.8
[3]
  log reduction at 0.2 % strength: 6.2
[4]
  log reduction at 0.25 % strength: 7.3

## C/C=C/c1ccc(O)c(OC)c1 [Isoeugenol, 2-Methoxy-4-(prop-1-en-1-yl)phenol]
Dose 0.100 % w/v, 60 s
  log reduction at 0.1 % strength: 1.1
Dose 0.125 % w/v, 60 s
  log reduction at 0.125 % strength: 3.7
[1]
  log reduction at 0.15 % strength: 5.6
[3]
  log reduction at 0.2 % strength: 7.5

## O=c1ccc2ccccc2o1 [Coumarine, 2H-chromen-2-one]
60 s, read-out: Log reduction
  log reduction at 0.5 % strength: -0.1
  log reduction at 1 % strength: 2.1
Dose 0.750 % w/v, 60 s, read-out: Log reduction
  log reduction at 0.75 % strength: 0.4
Dose 0.875 % w/v, 60 s
  log reduction at 0.875 % strength: 0.8
Dose 1.250 % w/v, 60 s
  log reduction at 1.25 % strength: 7

## OC/C=C/c1ccccc1 [Cinnamic alcohol, (2E)-3-phenyl-2-propen-1-ol]
60 s, read-out: Log reduction
  log reduction at 0.3 % strength: 1.8
  log reduction at 0.35 % strength: 2.6
  log reduction at 0.4 % strength: 5.5
  log reduction at 0.5 % strength: 6.9
60 s
  log reduction at 0.45 % strength: 6.9

## CCCCCCC1CCC(=O)O1 (stereo not drawn) [Decal]
60 s
  log reduction at 0.08 % strength: 2.4
Dose 0.100 % w/v, 60 s
  log reduction at 0.1 % strength: 5
Dose 0.120 % w/v, 60 s
  log reduction at 0.12 % strength: 6.6
Dose 0.160 % w/v, 60 s
  log reduction at 0.16 % strength: 7.2
[3]
  log reduction at 0.2 % strength: 7

## CC(C)=CCC/C(C)=C/CO [Geraniol Pur]
60 s
  log reduction at 0.05 % strength: 0.2
  log reduction at 0.06 % strength: 0.4
  log reduction at 0.07 % strength: 1.5
  log reduction at 0.08 % strength: 4
Dose 0.100 % w/v, 60 s
  log reduction at 0.1 % strength: 7.3
